Laboratory results published in patent publication EP4247399B1, “COMPOSITION COMPRISING NATURAL EXTRACTS AND USES THEREOF” (Esserre Pharma Srl, priority 2020, dated 2022).

Molecular target: T1, HMG-CoA reductase (Homo sapiens, UniProt P04035)
T1 construct: purchased Sigma-Aldrich CS1090
T1 sequence (P04035 426-888 limits assumed): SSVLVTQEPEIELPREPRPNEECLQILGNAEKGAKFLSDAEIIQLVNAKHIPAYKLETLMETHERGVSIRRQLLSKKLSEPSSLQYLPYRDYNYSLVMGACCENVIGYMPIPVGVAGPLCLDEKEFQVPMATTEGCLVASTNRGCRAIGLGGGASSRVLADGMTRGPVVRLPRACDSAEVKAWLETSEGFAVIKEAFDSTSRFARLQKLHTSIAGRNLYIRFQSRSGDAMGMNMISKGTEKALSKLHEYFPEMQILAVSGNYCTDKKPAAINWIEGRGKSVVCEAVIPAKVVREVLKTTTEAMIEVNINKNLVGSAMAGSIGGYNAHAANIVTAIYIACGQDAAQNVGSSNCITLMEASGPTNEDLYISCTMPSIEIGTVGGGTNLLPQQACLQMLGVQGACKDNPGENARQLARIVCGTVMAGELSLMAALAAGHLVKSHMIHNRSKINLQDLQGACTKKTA
Assay: HMG-CoA reductase inhibition test (HMG-CoA Reductase Assay Kit, decrease in absorbance at 340 nm)
Format: biochemical
Conditions: positive control
Procedure: The purpose of the test is to evaluate the hypocholesterolemic activity of the test samples by determining the inhibition of the enzyme 3-hydroxy-3-methylglutaryl-CoA reductase (HMG-CoA reductase).
The test for the HMG-CoA reductase enzyme inhibitory capacity was performed using the special kit (HMG-CoA Reductase Assay Kit, Catalogue Number CS1090, Sigma-Aldrich) and related experimental protocol.
The experiments were carried out in triplicate.
5 mL of buffer were added to 50 mg of the test sample and the solution obtained was then suitably filtered and used for the test.
A 100 µM Pravastatin solution (0.042 mg/mL, Sigma Aldrich) was used as a positive control.
The samples thus prepared were stirred for 10 seconds. Absorbance was then measured at 340 nm for 10 minutes while maintaining the samples at 37°C.
The ability to inhibit enzyme activity was then expressed as percent inhibition and calculated according to the following Equation (1): %Hinibition = ((ΔAControl −ΔAsample)/(ΔAControl)) × 100% [formula] where the value of ΔA is given by the difference between the absorbance recorded at the start time and that recorded after 10 minutes for the control and for the sample respectively. […]

Question: `CC[C@H](C)C(=O)O[C@H]1C[C@H](O)C=C2C=C[C@H](C)[C@H](CC[C@@H](O)C[C@@H](O)CC(=O)O)[C@H]21` [Pravastatin] was tested. Which inhibition at 10 µg/mL (Pravastatin 0.01 mg/mL (10 µg/mL)) did it give?
Answer: 99.8%

Question: And the inhibition at 100 µM (Pravastatin 0.042 mg/ml (100 µM))?
Answer: 99.6 ± 1.1%
